From ChEMBL document CHEMBL4308841, “Synthesis, in vitro antiproliferative activity, and kinase inhibitory effects of pyrazole-containing diarylureas and diarylamides” (Eur J Med Chem, 2018)

Experiments:
[1] = test system: K562; experiment: Growth inhibition of human K562 cells incubated for 48 hrs by sulforhodamine B assay; assay type: functional, cell-based; settings: K562, 48 h
[2] = test system: MOLT-4; experiment: Growth inhibition of human MOLT4 cells incubated for 48 hrs by sulforhodamine B assay; assay type: functional, cell-based; settings: MOLT-4, 48 h
[3] = test system: SF-295; experiment: Growth inhibition of human SF295 cells incubated for 48 hrs by sulforhodamine B assay; assay type: functional, cell-based; settings: SF-295, 48 h
[4] = test system: MDA-MB-435; experiment: Growth inhibition of human MDA-MB-435 cells incubated for 48 hrs by sulforhodamine B assay; assay type: functional, cell-based; settings: MDA-MB-435, 48 h
[5] = test system: 786-0; experiment: Growth inhibition of human 786-0 cells incubated for 48 hrs by sulforhodamine B assay; assay type: functional, cell-based; settings: 786-0, 48 h
[6] = test system: K562; experiment: Growth inhibition of human K562 cells assessed as cell growth at 0.01 uM incubated for 48 hrs by sulforhodamine B assay relative to control; assay type: functional; settings: K562, 48 h, read-out: Activity
[7] = test system: SF-539; experiment: Growth inhibition of human SF539 cells assessed as cell growth at 0.01 uM incubated for 48 hrs by sulforhodamine B assay relative to control; assay type: functional; settings: SF-539, 48 h, read-out: Activity
[8] = test system: SNB-19; experiment: Growth inhibition of human SNB19 cells assessed as cell growth at 0.01 uM incubated for 48 hrs by sulforhodamine B assay relative to control; assay type: functional; settings: SNB-19, 48 h, read-out: Activity
[9] = test system: U-251; experiment: Growth inhibition of human U251 cells assessed as cell growth at 0.01 uM incubated for 48 hrs by sulforhodamine B assay relative to control; assay type: functional; settings: U-251, 48 h, read-out: Activity
[10] = test system: SK-MEL-28; experiment: Growth inhibition of human SK-MEL-28 cells assessed as cell growth at 0.01 uM incubated for 48 hrs by sulforhodamine B assay relative to control; assay type: functional; settings: SK-MEL-28, 48 h, read-out: Activity
[11] = test system: MCF7; experiment: Growth inhibition of human MCF7 cells assessed as cell growth at 0.01 uM incubated for 48 hrs by sulforhodamine B assay relative to control; assay type: functional; settings: MCF7, 48 h, read-out: Activity
[12] = test system: MDA-MB-231; experiment: Growth inhibition of human MDA-MB-231 cells assessed as cell growth at 0.01 uM incubated for 48 hrs by sulforhodamine B assay relative to control; assay type: functional; settings: MDA-MB-231, 48 h, read-out: Activity
[13] = test system: BT-549; experiment: Growth inhibition of human BT549 cells assessed as cell growth at 0.01 uM incubated for 48 hrs by sulforhodamine B assay relative to control; assay type: functional; settings: BT-549, 48 h, read-out: Activity
[14] = test system: LOX IMVI; experiment: Growth inhibition of human LOXIMVI cells assessed as cell growth at 0.1 uM incubated for 48 hrs by sulforhodamine B assay relative to control; assay type: functional; settings: read-out: Activity
[15] = test system: Malme-3M; experiment: Growth inhibition of human MALME-3M cells assessed as cell growth at 0.1 uM incubated for 48 hrs by sulforhodamine B assay relative to control; assay type: functional; settings: read-out: Activity
[16] = test system: OVCAR-4; experiment: Growth inhibition of human OVCAR4 cells assessed as cell growth at 0.1 uM incubated for 48 hrs by sulforhodamine B assay relative to control; assay type: functional; settings: OVCAR-4, 48 h, read-out: Activity
[17] = test system: UO-31; experiment: Growth inhibition of human UO31 cells assessed as cell growth at 0.1 uM incubated for 48 hrs by sulforhodamine B assay relative to control; assay type: functional; settings: UO-31, 48 h, read-out: Activity
[18] = test system: RPMI-8226; experiment: Growth inhibition of human RPMI8226 cells assessed as cell growth at 1 uM incubated for 48 hrs by sulforhodamine B assay relative to control; assay type: functional; settings: RPMI-8226, 48 h, read-out: Activity
[19] = test system: NCI-H226; experiment: Growth inhibition of human NCI-H226 cells assessed as cell growth at 1 uM incubated for 48 hrs by sulforhodamine B assay relative to control; assay type: functional; settings: NCI-H226, 48 h, read-out: Activity
[20] = test system: NCI-H522; experiment: Growth inhibition of human NCI-H522 cells assessed as cell growth at 1 uM incubated for 48 hrs by sulforhodamine B assay relative to control; assay type: functional; settings: NCI-H522, 48 h, read-out: Activity
[21] = test system: SF-268; experiment: Growth inhibition of human SF268 cells assessed as cell growth at 1 uM incubated for 48 hrs by sulforhodamine B assay relative to control; assay type: functional; settings: SF-268, 48 h, read-out: Activity
[22] = test system: SF-295; experiment: Growth inhibition of human SF295 cells assessed as cell growth at 1 uM incubated for 48 hrs by sulforhodamine B assay relative to control; assay type: functional; settings: SF-295, 48 h, read-out: Activity
[23] = test system: NCI/ADR-RES; experiment: Growth inhibition of human NCI/ADR-RES cells assessed as cell growth at 1 uM incubated for 48 hrs by sulforhodamine B assay relative to control; assay type: functional; settings: read-out: Activity
[24] = test system: SK-OV-3; experiment: Growth inhibition of human SKOV3 cells assessed as cell growth at 1 uM incubated for 48 hrs by sulforhodamine B assay relative to control; assay type: functional; settings: SK-OV-3, 48 h, read-out: Activity
[25] = test system: T47D; experiment: Growth inhibition of human T47D cells assessed as cell growth at 1 uM incubated for 48 hrs by sulforhodamine B assay relative to control; assay type: functional; settings: read-out: Activity
[26] = test system: HCT-15; experiment: Growth inhibition of human HCT15 cells assessed as cell growth at 100 uM incubated for 48 hrs by sulforhodamine B assay relative to control; assay type: functional; settings: HCT-15, 48 h, read-out: Activity
[27] = test system: SF-295; experiment: Growth inhibition of human SF295 cells assessed as cell growth at 100 uM incubated for 48 hrs by sulforhodamine B assay relative to control; assay type: functional; settings: SF-295, 48 h, read-out: Activity
[28] = test system: SNB-75; experiment: Growth inhibition of human SNB75 cells assessed as cell growth at 100 uM incubated for 48 hrs by sulforhodamine B assay relative to control; assay type: functional; settings: SNB-75, 48 h, read-out: Activity
[29] = test system: NCI/ADR-RES; experiment: Growth inhibition of human NCI/ADR-RES cells assessed as cell growth at 100 uM incubated for 48 hrs by sulforhodamine B assay relative to control; assay type: functional; settings: read-out: Activity
[30] = test system: SK-OV-3; experiment: Growth inhibition of human SKOV3 cells assessed as cell growth at 100 uM incubated for 48 hrs by sulforhodamine B assay relative to control; assay type: functional; settings: SK-OV-3, 48 h, read-out: Activity
[31] = read-out: LC50 (the source's name)
[32] = read-out: pLC50 (the source's name) (converted)

COc1cc(Cl)cc(-c2nn(-c3cccc(NC(=O)c4ccc(N5CCOCC5)c(C(F)(F)F)c4)c3)cc2-c2ccncc2)c1
GI50 ([1]; read-out: GI50): 3.1 µM | LC50 ([1]; read-out: LC50): > 100 µM | TGI ([1]; read-out: TGI): > 100 µM | GI50 ([1]; read-out: pGI50 (converted)): 3.09 µM | LC50 ([1]; read-out: pLC50 (converted)): > 100 µM | TGI ([1]; read-out: pTGI (converted)): > 100 µM | GI50 ([2]; read-out: GI50): 5.49 µM | CC50 [2, 31]: > 100 µM | TGI ([2]; read-out: TGI): > 100 µM | GI50 ([2]; read-out: pGI50 (converted)): 5.5 µM | CC50 [2, 32]: > 100 µM | TGI ([2]; read-out: pTGI (converted)): > 100 µM | GI50 ([3]; read-out: GI50): 2710 nM | CC50 [3, 31]: > 100 µM | TGI ([3]; read-out: TGI): 14.8 µM | GI50 ([3]; read-out: pGI50 (converted)): 2190 nM | CC50 [3, 32]: > 100 µM | TGI ([3]; read-out: pTGI (converted)): 14.8 µM | GI50 ([4]; read-out: GI50): 4.38 µM | LC50 ([4]; read-out: LC50): > 100 µM | TGI ([4]; read-out: TGI): > 100 µM | GI50 ([4]; read-out: pGI50 (converted)): 43.7 µM | LC50 ([4]; read-out: pLC50 (converted)): > 100 µM | TGI ([4]; read-out: pTGI (converted)): > 100 µM | GI50 ([5]; read-out: GI50): 3.73 µM | CC50 [5, 31]: > 100 µM | TGI ([5]; read-out: TGI): 29.6 µM | GI50 ([5]; read-out: pGI50 (converted)): 3.24 µM | CC50 [5, 32]: > 100 µM | TGI ([5]; read-out: pTGI (converted)): 29.5 µM | growth at 0.01 µM [6]: 100% | growth at 0.01 µM [7]: 99% | growth at 0.01 µM [8]: 96% | growth at 0.01 µM [9]: 95% | growth at 0.01 µM [10]: 97% | growth at 0.01 µM [11]: 91% | growth at 0.01 µM [12]: 99% | growth at 0.01 µM [13]: 104% | growth at 0.1 µM [14]: 95% | growth at 0.1 µM [15]: 85% | growth at 0.1 µM [16]: 103% | growth at 0.1 µM [17]: 87% | growth at 1 µM [18]: 59% | growth at 1 µM [19]: 54% | growth at 1 µM [20]: 77% | growth at 1 µM [21]: 93% | growth at 1 µM [22]: 73% | growth at 1 µM [23]: 92% | growth at 1 µM [24]: 103% | growth at 1 µM [25]: 93% | growth at 100 µM [26]: 5% | growth at 100 µM [27]: -32% | growth at 100 µM [28]: 18% | growth at 100 µM [29]: 30% | growth at 100 µM [30]: 70%
